The target in series [1] is Voltage-gated L-type calcium channel (Homo sapiens, UniProt Q13936+Q13698+Q01668+O60840). Nature of the series: Calcium channel antagonistic activity relative to 2,6-Dimethyl-4-(2-nitro-phenyl)-1,4-dihydro-pyridine-3,5-dicarboxylic acid dimethyl ester(=100). It counts as functional, Cavia porcellus. The following applies: guinea pig.
The species entered for another series is Cavia porcellus. Nature of the series: Inhibition of muscarinic receptor mediated [Ca2+] dependent contraction of guinea pig ileal longitudinal smooth muscle. It counts as functional.

Turning to `COC(=O)C1=C(C)N=C(C)/C(=C(\O)OC)C1c1cccc(C)c1` (configuration not stated), the Relative activity in series [1] was 4.6. In the series listed under Cavia porcellus, this compound showed an ID50 of 110 nM.
In the same order, the values of `COC(=O)C1=C(C)N=C(C)/C(=C(\O)OC)C1c1cccc(C#N)c1` (configuration not stated) are 1.7 and 300 nM.
The corresponding values for `COC(=O)C1=C(C)N=C(C)/C(=C(\O)OC)C1c1ccc(C)cc1` (configuration not stated) are less than 0.05 and 50000 nM.
The corresponding values for `CCOC(=O)C1=C(C)NC(C)=C(C(=O)OCC)C1c1ccccc1` are ~ 18 and 30 nM.
In the case of `COC(=O)C1=C(C)N=C(C)/C(=C(\O)OC)C1c1ccc([N+](=O)[O-])cc1[N+](=O)[O-]` (configuration not stated), the Relative activity in series [1] is reported as less than 0.05. In addition, the ID50 in the series listed under Cavia porcellus is greater than 50000 nM.
`COC(=O)C1=C(C)N=C(C)/C(=C(\O)OC)C1c1c(F)c(F)c(F)c(F)c1F` (configuration not stated): the ID50 in the series listed under Cavia porcellus came to 0.9 nM.
Take `COC(=O)C1=C(C)NC(C)=C(C(=O)OC)C1c1ccccc1`: the Relative activity in series [1] is on record as 18. This compound registered an ID50 in the series filed under Cavia porcellus of 28 nM.
In the same order, the values of `COC(=O)C1=C(C)NC(C)=C(C(=O)OC)C1c1ccccc1[N+](=O)[O-]` [NIFEDIPINE] are 100 and 5.1 nM.
The corresponding values for `COC(=O)C1=C(C)NC(C)=C(C(=O)OC)C1c1ccc(N(C)C)cc1` are 0.005 and 50000 nM.
